Assay results reported in US20240189449A1, “LIPID NANOPARTICLES AND POLYNUCLEOTIDES ENCODING ORNITHINE TRANSCARBAMYLASE FOR THE TREATMENT OF ORNITHINE TRANSCARBAMYLASE DEFICIENCY” (ModernaTX, Inc., priority 2021, published 2024).

Experiments:
Format in all cases: in vivo
[1] = tested on: CD-1 mice; assay: hEPO expression in serum after IV lipid nanoparticles with hEPO mRNA, CD-1 mice; settings: LNP with DSPC, cholesterol, Compound I; for Mean 6 hr hEPO Concentration: serum 6 hours after injection
Protocol: To assess potency of expression and metabolic stability of lipids of the disclosure, hepatocyte protein expression (hEPO) was measured following administration to mice of a nanoparticle of the disclosure.
Lipid nanoparticles including DSPC as a phospholipid, cholesterol as a structural lipid, Compound I as a PEG lipid, an ionizable amino lipid of Formula (II), and an mRNA encoding hEPO were intravenously administered to CD-1 mice. The concentration of hEPO in serum was tested at 6 hours after injection.

[2] = tested on: CD-1 mice; assay: Parent lipid remaining in liver at 24 h, CD-1 mice (hEPO mRNA LNPs); settings: for Approx. Percent Total Dose of Parent Lipid Remaining at 24 h: calculation assumes a 25 g mouse with a 1.5 g liver
[3] = tested on: mice; assay: Luciferase expression, total whole body flux, mice
Protocol: (§1) To further assess potency of expression and metabolic stability of lipids of the disclosure, expression of luciferase was measured following administration to rodents of a nanoparticle of the disclosure comprising an mRNA containing luciferase.
Lipid nanoparticles including DSPC as a phospholipid, cholesterol as a structural lipid, Compound I as a PEG lipid, an ionizable amino lipid of Formula (II), and an mRNA encoding luciferase were intravenously administered to CD-1 mice and Sprague Dawley rats. […]

[4] = tested on: mice; assay: Residual lipid levels in the liver at 24 h, mice (luciferase mRNA LNPs)
[5] = tested on: CD-1 mice; assay: NPI-Luciferase expression, ex vivo liver bioluminescence, CD-1 mice; settings: mouse, IV
Protocol: as §1
(§2) Lipid nanoparticles including DSPC as a phospholipid, cholesterol as a structural lipid, Compound I as a PEG lipid, an ionizable amino lipid of Formula (II), and an mRNA encoding luciferase were intravenously administered to CD-1 mice and Sprague Dawley rats. The level of expression was tested via bioluminescence in the liver ex vivo at 6 hours after injection.

[6] = tested on: Sprague Dawley rats; assay: NPI-Luciferase expression, ex vivo liver bioluminescence, Sprague Dawley rats; settings: rat, IV
Protocol: as §1, §2

[7] = tested on: Sprague Dawley rats; assay: Parent lipid remaining in liver tissue at 24 h, rats; settings: rat
[8] = tested on: Sprague Dawley rats; assay: hEPO expression in serum after IV lipid nanoparticles with hEPO mRNA, Sprague Dawley rats; settings: serum 6 hours after injection
Protocol: To further assess potency of expression and metabolic stability of lipids of the disclosure, hepatocyte protein expression (hEPO) was measured following administration to rats of a nanoparticle of the disclosure.
Lipid nanoparticles including DSPC as a phospholipid, cholesterol as a structural lipid, Compound I as a PEG lipid, an ionizable amino lipid of Formula (II), and an mRNA encoding hEPO were intravenously administered to Sprague Dawley rats. The concentration of hEPO in serum was tested at 6 hours after injection.

| SMILES | hEPO AUC [1] | Mean 6 hr hEPO Concentration [1] | Parent Lipid Remaining (nmol/g liver tissue) at 24 h [2] | Approx. Percent Total Dose of Parent Lipid Remaining at 24 h [2] | Total Whole Body Flux @ 6 h [3] | % Lipid Remaining @ 24 h [4] | Mean 6 h ex vivo Liver NPI-Luciferase Total Flux [5] | Mean 6 h ex vivo Liver NPI-Luciferase Total Flux [6] | Approx. Percent Total Dose of Parent Lipid Remaining at 24 h [7] | Mean 6 hr hEPO Concentration [8] |
| --- | --- | --- | --- | --- | --- | --- | --- | --- | --- | --- |
| CCCCCCCCC(CCCCCCCC)OC(=O)CCCCCCCN(CCO)CCCCCCCC(=O)OCCC(CCCC)CCCCCC (stereo not shown) [Compound 7] | 2.13E+07 | 1355957 mIU/mL | 0.3 ± 0.2 nmol/g liver tissue | 0.2% | 6.09E+10 p/s | <1% |  |  |  |  |
| CCCCCCCCC(CCCCCCCC)OC(=O)CCCCCCCN(CCO)CCCCCCCC(=O)OCC(CCC)CCCCCCC (stereo not shown) [Compound 8] |  |  |  |  | 3.82E+10 p/s | <1% |  |  |  |  |
| CCCCCCCCC(CCCCCCCC)OC(=O)CCCCCCCN(CCCCCCCC(=O)OCC(CCC)CCCCCCC)CCCNc1c(NC)c(=O)c1=O (stereo not shown) [Compound 9] |  |  |  |  | 1.82E+10 p/s | 68 ± 10% |  |  |  |  |
| CCCCCCCCC(CCCCCCCC)OC(=O)CCCCCCCN(CCCCCCCC(=O)OCC(CCCC)CCCCCCC)CCCNc1c(NC)c(=O)c1=O (stereo not shown) [Compound 10] |  |  |  |  | 4.6E+09 p/s | 67 ± 7% |  |  |  |  |
| CCCCCCCCC(CCCCCCCC)OC(=O)CCCCCCCN(CCCCCCCC(=O)OCC(CC)CCCCCCC)CCCNc1c(NC)c(=O)c1=O (stereo not shown) [Compound 11] |  |  |  |  | 1.04E+10 p/s | 23 ± 6% |  |  |  |  |
| CCCCCCCCC(CCCCCCCC)OC(=O)CCCCCCCN(CCO)CCCCCCCC(=O)OCCC(CCCCCC)C(C)C (stereo not shown) [Compound 12] |  |  |  |  | 2.39E+10 p/s | <1% |  |  |  |  |
| CCCCCCCCC(CCCCCCCC)OC(=O)CCCCCCCN(CCO)CCCCCCCC(=O)OCCC(CCC)CCCCCC (stereo not shown) [Compound 13] |  |  |  |  | 3.77E+10 p/s | <1% |  |  |  |  |
| CCCCCCCCC(CCCCCCCC)COC(=O)CCCCCN(CCCCCCCC(=O)OC(CC)CCCCCCCC)CCCNc1c(NC)c(=O)c1=O (stereo not shown) [Compound 14] | 4.53E+07 | 2952339 mIU/mL | 56 ± 6 nmol/g liver tissue | 58% |  |  | 465200000 photons/second | 1567000000 photons/second | 58% |  |
| CCCCCCCCC(CCCCCCCC)OC(=O)CCCCCCCN(CCCCCCCC(=O)OCCC(CCC)CCCCCC)CCCNc1c(NC)c(=O)c1=O (stereo not shown) [Compound 18] | 3.17E+07 | 2158772 mIU/mL | 40 ± 7 nmol/g liver tissue | 41% |  |  | 372800000 photons/second | 1473333333 photons/second | 41% |  |
| CCCCCCCCC(CCCCCCCC)OC(=O)CCCCCCCN(CCO)CCCCCCCC(=O)OCCC(CCCCC)CCCCC [Compound 24] | 1.93E+07 | 1160499 mIU/mL | 3 ± 1 nmol/g liver tissue | 2% |  |  | 240400000 photons/second | 2020000000 photons/second | 2% |  |
| CCCCC(CCCC)CCOC(=O)CCCCCCCN(CCCCCCCC(=O)OCCC(CCCC)CCCC)CCCNc1c(NC)c(=O)c1=O [Compound 55] | 1.99E+07 | 1332073 mIU/mL | 3 ± 0.6 nmol/g liver tissue | 3% |  |  |  |  |  | 161760 mIU/mL |
| CCCCCC(CCCCC)CCOC(=O)CCCCCCCN(CCCCCCCC(=O)OC(CCCCC)CCCCC)CCCNc1c(NC)c(=O)c1=O [Compound 57] | 1.60E+07 | 1238977 mIU/mL | 12 ± 1 nmol/g liver tissue | 13% |  |  |  |  |  |  |
| CCCCCC(CCCCC)CCOC(=O)CCCCCCCN(CCCCCCCC(=O)OC(CCCC)CCCC)CCCNc1c(NC)c(=O)c1=O [Compound 58] | 2.33E+07 | 1347883 mIU/mL | 15 ± 2 nmol/g liver tissue | 15% |  |  |  |  |  |  |
| CCCCCCC(CCCCCC)OC(=O)CCCCCCCN(CCCCCCCC(=O)OCCC(CCCC)CCCC)CCCNc1c(NC)c(=O)c1=O [Compound 60] | 1.42E+07 | 1031398 mIU/mL | 8.5 ± 0.6 nmol/g liver tissue | 9 ± 0.8% |  |  |  |  |  |  |
| CCCCCC(CCCCC)OC(=O)CCCCCCCN(CCCCCCCC(=O)OCCC(CCCC)CCCC)CCCNc1c(NC)c(=O)c1=O [Compound 61] | 1.44E+07 | 1020791 mIU/mL | 5.1 ± 0.8 nmol/g liver tissue | 6 ± 0.3% |  |  |  |  |  | 362569 mIU/mL |
| CCCCC(CCCC)CCOC(=O)CCCCCCCN(CCCCCCCC(=O)OC(CCCC)CCCC)CCCNc1c(NC)c(=O)c1=O [Compound 62] | 6.51E+06 | 475498 mIU/mL | 1.8 ± 0.6 nmol/g liver tissue | 2 ± 0.9% |  |  |  |  |  |  |
| CCCCCCCC(CCCCCCC)OC(=O)CCCCCCCN(CCCCCCCC(=O)OCCC(CCC)CCC)CCCNc1c(NC)c(=O)c1=O [Compound 63] | 9.66E+06 | 692334 mIU/mL | 8.9 ± 2.8 nmol/g liver tissue | 9 ± 3%^ |  |  |  |  |  |  |
| CCCCCCC(CCCCCC)OC(=O)CCCCCCCN(CCCCCCCC(=O)OCCC(CCC)CCC)CCCNc1c(NC)c(=O)c1=O [Compound 64] | 2.43E+07 | 1760015 mIU/mL | 4.9 ± 0.9 nmol/g liver tissue | 6 ± 0.8% |  |  |  |  |  | 161146 mIU/mL |
| CCCCCC(CCCCC)OC(=O)CCCCCCCN(CCCCCCCC(=O)OCCC(CCC)CCC)CCCNc1c(NC)c(=O)c1=O [Compound 65] | 1.02E+07 | 734054 mIU/mL | 0.9 ± 0.3 nmol/g liver tissue | 0.9 ± 0.06% |  |  |  |  |  |  |
| CCCCC(CCCC)OC(=O)CCCCCCCN(CCCCCCCC(=O)OCCC(CCC)CCC)CCCNc1c(NC)c(=O)c1=O [Compound 66] | 2.10E+05 | 17801 mIU/mL | 0.1 ± 0.03 nmol/g liver tissue | <1% |  |  |  |  |  |  |
